Reference: US7973075B2, “Kainate receptor-selective epimeric analogs of dysiherbaine” (priority 2007, dated 2011)

Legend:
GluR2(i) = target: T1, GluR2(i) (Rattus norvegicus, UniProt P19491); conditions: Sanders et al., 2005; cited from earlier work
T1 construct: expressed in transfected cells; host or cells: HEK-293-T/17

KA2 [1] = target: T2, KA2 (Rattus norvegicus, UniProt Q63273); conditions: Sanders et al., 2005; cited from earlier work
T2 construct: expressed in transfected cells; host or cells: HEK-293-T/17
T2 sequence (Q63273 15-979): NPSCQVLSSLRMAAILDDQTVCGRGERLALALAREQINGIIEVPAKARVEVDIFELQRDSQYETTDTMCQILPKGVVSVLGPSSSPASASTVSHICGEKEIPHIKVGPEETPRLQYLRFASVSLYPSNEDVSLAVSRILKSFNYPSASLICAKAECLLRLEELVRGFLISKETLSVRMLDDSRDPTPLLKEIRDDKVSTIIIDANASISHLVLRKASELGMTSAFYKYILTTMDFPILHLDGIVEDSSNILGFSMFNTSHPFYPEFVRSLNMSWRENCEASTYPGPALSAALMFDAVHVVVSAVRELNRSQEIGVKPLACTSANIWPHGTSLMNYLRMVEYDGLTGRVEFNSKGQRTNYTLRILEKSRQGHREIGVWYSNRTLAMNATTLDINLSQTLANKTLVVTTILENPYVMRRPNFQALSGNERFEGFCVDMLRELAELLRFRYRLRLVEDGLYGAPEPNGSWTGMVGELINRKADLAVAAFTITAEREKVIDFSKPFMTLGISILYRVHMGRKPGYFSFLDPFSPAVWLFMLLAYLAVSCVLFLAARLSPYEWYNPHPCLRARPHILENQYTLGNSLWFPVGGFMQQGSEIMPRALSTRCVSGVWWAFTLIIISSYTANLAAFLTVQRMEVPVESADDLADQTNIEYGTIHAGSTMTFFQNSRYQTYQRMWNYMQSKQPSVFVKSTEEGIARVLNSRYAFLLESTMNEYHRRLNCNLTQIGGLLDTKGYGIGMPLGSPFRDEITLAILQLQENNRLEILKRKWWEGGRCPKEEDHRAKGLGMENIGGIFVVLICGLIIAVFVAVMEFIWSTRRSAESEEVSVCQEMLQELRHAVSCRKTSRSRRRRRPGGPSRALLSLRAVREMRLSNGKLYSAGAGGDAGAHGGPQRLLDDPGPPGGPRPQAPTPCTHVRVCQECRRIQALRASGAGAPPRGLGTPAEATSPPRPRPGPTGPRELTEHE

GluR6a = target: T3, GluR6a (Rattus norvegicus, UniProt P42260); conditions: Sanders et al., 2005; cited from earlier work
T3 construct: expressed in transfected cells; host or cells: HEK-293-T/17

GluR5 = target: T4, GluR5 (Rattus norvegicus, UniProt P22756); conditions: Tables 1-2; comparison values of neoDH and MSVIII-19 (Sanders et al., 2005); read-out: GluR5 binding affinity (displacement of [3H]kainate); cited from earlier work
T4 construct: expressed in transfected cells; HEK 293 (patch clamp)

KA2 [2] = target: T2, KA2; conditions: Tables 1-2; comparison values of neoDH and MSVIII-19 (Sanders et al., 2005); cited from earlier work
GluR5-2b = target: T5, GluR5-2b (Rattus norvegicus, UniProt P22756); assay: Radioligand binding ([3H]kainate displacement), Example 2
T5 construct: expressed in transfected cells; host or cells: HEK-293-T/17
Experimental: Radioligand binding. Membrane preparations from HEK-293-T/17 cells were prepared and used in radioligand binding assays as described previously (Sanders et al., 2005). Unlabeled analogs were used to displace [3H]kainate (10-20 nM, PerkinElmer Life and Analytical Sciences, Boston, Mass.) or [3H]AMPA (20 nM, PerkinElmer Life and Analytical Sciences, Boston, Mass.) from KARs and AMPARs, respectively. Nonspecific binding was determined in the presence of 1 mM glutamate. After 1 hour incubation at 4° C., samples were harvested by rapid filtration onto Whatman GF/C membranes. Upon addition of scintillation fluid, membranes were incubated for 1 hour at room temperature. A Beckman LS5000TD scintillation counter was used for quantification (Beckman Coulter Inc., Fullerton, Calif.). Data were plotted and fit with a one-site competition curve with fixed minima and maxima using Prism 4 (GraphPad Software, Inc). Ki's were calculated with the Cheng-Prusoff equation using the determined IC5o values and the radioligand Kd. Data were plotted and fit with a one-site competition curve with fixed minima (0) and maxima (100) (Prism4, GraphPad Software, Inc.). […]
The pharmacological profiles of the Group I analogs, 8-deoxy-neoDH and 9-deoxyneoDH, were analyzed initially in radioligand binding experiments with expressed recombinant AMPA and kainate receptor subunits. […]

T3 sequence (P42260 32-908): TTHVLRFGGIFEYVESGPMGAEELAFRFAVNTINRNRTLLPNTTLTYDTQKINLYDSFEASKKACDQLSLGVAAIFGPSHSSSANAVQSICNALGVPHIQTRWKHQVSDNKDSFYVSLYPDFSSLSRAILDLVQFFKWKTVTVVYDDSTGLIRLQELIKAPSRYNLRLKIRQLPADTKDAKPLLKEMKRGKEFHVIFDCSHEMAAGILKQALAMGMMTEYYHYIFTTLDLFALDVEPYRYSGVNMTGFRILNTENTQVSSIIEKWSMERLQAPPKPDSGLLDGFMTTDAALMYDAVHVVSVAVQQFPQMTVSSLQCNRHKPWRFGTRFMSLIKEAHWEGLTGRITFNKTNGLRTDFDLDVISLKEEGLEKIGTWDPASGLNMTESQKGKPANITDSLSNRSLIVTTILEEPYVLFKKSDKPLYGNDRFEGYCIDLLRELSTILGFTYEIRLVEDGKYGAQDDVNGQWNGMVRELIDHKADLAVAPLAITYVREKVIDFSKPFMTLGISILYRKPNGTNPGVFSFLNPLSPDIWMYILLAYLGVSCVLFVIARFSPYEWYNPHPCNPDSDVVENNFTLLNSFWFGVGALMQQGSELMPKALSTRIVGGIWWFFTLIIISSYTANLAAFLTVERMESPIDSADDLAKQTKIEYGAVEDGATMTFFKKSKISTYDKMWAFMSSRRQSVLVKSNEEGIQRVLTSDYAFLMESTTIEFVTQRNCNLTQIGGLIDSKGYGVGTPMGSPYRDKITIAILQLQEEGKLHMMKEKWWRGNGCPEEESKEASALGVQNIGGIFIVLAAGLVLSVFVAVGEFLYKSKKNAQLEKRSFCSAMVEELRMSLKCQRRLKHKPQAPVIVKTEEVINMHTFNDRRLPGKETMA
T1 sequence (P19491 22-883 isoform P19491-2 limits assumed): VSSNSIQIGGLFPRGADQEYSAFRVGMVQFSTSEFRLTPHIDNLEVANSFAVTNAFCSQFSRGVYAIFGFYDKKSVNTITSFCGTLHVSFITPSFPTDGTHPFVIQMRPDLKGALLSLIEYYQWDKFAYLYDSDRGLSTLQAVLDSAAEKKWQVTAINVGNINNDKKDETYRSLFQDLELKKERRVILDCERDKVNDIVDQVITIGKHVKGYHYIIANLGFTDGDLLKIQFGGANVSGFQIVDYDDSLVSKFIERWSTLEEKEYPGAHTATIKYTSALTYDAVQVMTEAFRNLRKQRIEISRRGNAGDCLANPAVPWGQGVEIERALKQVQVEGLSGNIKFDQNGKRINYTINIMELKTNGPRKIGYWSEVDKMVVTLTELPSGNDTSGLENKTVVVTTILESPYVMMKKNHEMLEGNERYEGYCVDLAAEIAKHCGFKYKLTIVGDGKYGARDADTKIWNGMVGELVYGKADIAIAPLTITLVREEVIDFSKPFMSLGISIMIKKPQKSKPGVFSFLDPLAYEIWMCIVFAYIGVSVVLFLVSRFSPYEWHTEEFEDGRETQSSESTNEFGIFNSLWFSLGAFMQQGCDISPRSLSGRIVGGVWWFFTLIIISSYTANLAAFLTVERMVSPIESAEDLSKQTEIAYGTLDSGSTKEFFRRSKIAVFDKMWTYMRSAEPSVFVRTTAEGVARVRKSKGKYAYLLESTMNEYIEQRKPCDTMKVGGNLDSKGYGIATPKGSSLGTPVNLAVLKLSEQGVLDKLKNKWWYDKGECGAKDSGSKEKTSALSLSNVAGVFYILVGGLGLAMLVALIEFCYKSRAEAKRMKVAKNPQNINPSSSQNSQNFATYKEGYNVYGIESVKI
T4 sequence (P22756 with tags, fused parts or gaps isoform P22756-2): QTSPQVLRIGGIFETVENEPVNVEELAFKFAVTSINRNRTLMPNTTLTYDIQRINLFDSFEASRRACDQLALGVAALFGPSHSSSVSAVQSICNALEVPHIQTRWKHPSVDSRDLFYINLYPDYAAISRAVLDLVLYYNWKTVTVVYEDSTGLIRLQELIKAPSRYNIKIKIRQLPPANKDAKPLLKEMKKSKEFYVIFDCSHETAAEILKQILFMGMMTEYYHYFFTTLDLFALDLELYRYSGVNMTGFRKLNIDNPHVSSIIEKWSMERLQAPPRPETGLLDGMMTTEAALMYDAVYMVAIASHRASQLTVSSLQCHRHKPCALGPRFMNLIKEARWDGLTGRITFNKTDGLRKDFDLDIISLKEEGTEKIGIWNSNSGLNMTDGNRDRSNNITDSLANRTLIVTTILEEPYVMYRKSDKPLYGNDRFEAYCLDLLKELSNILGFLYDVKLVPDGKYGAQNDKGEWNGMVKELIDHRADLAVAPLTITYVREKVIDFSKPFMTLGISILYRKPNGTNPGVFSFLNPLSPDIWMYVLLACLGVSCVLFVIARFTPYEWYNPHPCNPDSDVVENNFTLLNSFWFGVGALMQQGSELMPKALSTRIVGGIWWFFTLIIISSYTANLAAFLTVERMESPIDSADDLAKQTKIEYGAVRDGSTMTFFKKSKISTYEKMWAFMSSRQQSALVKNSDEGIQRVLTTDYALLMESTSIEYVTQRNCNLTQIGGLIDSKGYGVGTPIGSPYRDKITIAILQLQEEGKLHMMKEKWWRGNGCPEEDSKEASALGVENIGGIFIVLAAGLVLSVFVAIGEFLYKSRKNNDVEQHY
T5 sequence (P22756 31-905 isoform P22756-2 limits assumed): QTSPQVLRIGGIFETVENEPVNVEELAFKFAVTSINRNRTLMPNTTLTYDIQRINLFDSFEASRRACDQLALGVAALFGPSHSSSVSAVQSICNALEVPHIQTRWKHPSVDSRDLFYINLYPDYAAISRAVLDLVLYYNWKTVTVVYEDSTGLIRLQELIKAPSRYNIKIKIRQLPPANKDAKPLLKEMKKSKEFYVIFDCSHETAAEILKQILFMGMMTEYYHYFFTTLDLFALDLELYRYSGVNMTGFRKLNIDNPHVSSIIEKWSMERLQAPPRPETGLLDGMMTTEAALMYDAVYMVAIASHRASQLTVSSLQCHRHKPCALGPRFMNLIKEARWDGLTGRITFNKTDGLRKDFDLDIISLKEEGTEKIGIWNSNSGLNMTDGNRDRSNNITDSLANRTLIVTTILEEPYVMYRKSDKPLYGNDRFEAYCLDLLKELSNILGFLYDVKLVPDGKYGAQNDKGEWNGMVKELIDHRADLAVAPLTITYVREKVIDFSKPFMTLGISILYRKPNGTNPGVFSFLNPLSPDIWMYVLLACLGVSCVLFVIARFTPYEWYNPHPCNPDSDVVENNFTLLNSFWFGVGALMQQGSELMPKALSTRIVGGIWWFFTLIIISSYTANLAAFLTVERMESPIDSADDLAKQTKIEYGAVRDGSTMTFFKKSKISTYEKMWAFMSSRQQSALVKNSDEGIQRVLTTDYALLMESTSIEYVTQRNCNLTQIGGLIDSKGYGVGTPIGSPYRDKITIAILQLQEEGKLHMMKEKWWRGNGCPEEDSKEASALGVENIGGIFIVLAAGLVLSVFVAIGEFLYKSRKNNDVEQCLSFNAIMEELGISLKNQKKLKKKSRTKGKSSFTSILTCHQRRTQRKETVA

| Compound | Ki (GluR2(i)) [nM] | Ki KA2 (KA2 [1]) [nM] | Ki (GluR6a) [nM] | Ki (GluR5) [nM] | KA2 binding affinity (displacement of [3H]kainate) (KA2 [2]) [µM] | Ki (GluR5-2b) [nM] |
| --- | --- | --- | --- | --- | --- | --- |
| N[C@@H](C[C@]1(C(=O)O)C[C@H]2OCCC[C@H]2O1)C(=O)O [MSVIII-19, 8,9-dideoxy-neoDH] | > 100000 | >100000 | > 100000 | 128 | >100 |  |
| N[C@@H](C[C@]1(C(=O)O)C[C@H]2OC[C@@H](O)C[C@H]2O1)C(=O)O [8-deoxy-neoDH] |  |  |  |  |  | 2 |
